PubChem BioAssay (NCI)
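Compound exposure: 48 hours, 5 concentrations, 96-well plates. At the GI50, growth is halved. The concentration for full growth arrest is given as TGI.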

Key:
Experiment in all cases: inhibition of tumour cell growth, NCI panel, 48 h
[1] = tested on: 786-0 renal
[2] = tested on: A498 renal
[3] = tested on: A549 NSCLC
[4] = tested on: ACHN renal
[5] = tested on: BT-549 breast
[6] = tested on: CAKI-1 renal
[7] = tested on: CCRF-CEM leukemia
[8] = tested on: COLO 205 colon
[9] = tested on: DU-145 prostate
[10] = tested on: EKVX NSCLC
[11] = tested on: HCC-2998 colon
[12] = tested on: HCT-116 colon
[13] = tested on: HCT-15 colon
[14] = tested on: HL-60(TB) leukemia
[15] = tested on: HOP-62 NSCLC
[16] = tested on: HOP-92 NSCLC
[17] = tested on: HS 578T breast
[18] = tested on: HT29 colon
[19] = tested on: IGROV1 ovarian
[20] = tested on: K-562 leukemia
[21] = tested on: KM12 colon
[22] = tested on: LOX IMVI melanoma
[23] = tested on: M14 melanoma
[24] = tested on: MALME-3M melanoma
[25] = tested on: MCF7 breast
[26] = tested on: MDA-MB-231 breast
[27] = tested on: MDA-MB-435
[28] = tested on: MOLT-4 leukemia
[29] = tested on: NCI-H226 lung
[30] = tested on: NCI-H23 lung
[31] = tested on: NCI-H460 lung
[32] = tested on: NCI-H522 lung
[33] = tested on: NCI/ADR-RES ovarian
[34] = tested on: OVCAR-3 ovarian
[35] = tested on: OVCAR-4 ovarian
[36] = tested on: OVCAR-5 ovarian
[37] = tested on: OVCAR-8 ovarian
[38] = tested on: PC-3 prostate
[39] = tested on: RPMI-8226 leukemia
[40] = tested on: SF-268 CNS
[41] = tested on: SF-295 CNS
[42] = tested on: SF-539 CNS
[43] = tested on: SK-MEL-2 melanoma
[44] = tested on: SK-MEL-28 melanoma
[45] = tested on: SK-MEL-5 melanoma
[46] = tested on: SK-OV-3 ovarian
[47] = tested on: SN12C renal
[48] = tested on: SNB-19 CNS
[49] = tested on: SNB-75 CNS
[50] = tested on: SR leukemia
[51] = tested on: SW-620 colon
[52] = tested on: T-47D breast
[53] = tested on: TK-10 renal
[54] = tested on: U251 CNS
[55] = tested on: UACC-257 melanoma
[56] = tested on: UACC-62 melanoma
[57] = tested on: UO-31 renal

## O=C(CCCCCCNC(=O)C(O)(O)C(F)(F)F)Nc1ccc(Br)cc1
[1]
  GI50: 4.47 µM
  TGI: > 33 µM
[2]
  GI50: 1.09 µM
  TGI: 9.68 µM
[3]
  GI50: 8.39 µM
  TGI: > 33 µM
[4]
  GI50: 2.65 µM
  TGI: 17.7 µM
[5]
  GI50: 6.42 µM
  TGI: > 33 µM
[6]
  GI50: 7.02 µM
  TGI: > 33 µM
[7]
  GI50: 1.9 µM
  TGI: > 33 µM
[8]
  GI50: 5.02 µM
  TGI: 17.7 µM
[9]
  GI50: 5.46 µM
  TGI: > 33 µM
[10]
  GI50: 5.49 µM
  TGI: > 33 µM
[11]
  GI50: 5.35 µM
  TGI: 13.2 µM
[12]
  GI50: 1.12 µM
  TGI: > 33 µM
[13]
  GI50: 5.23 µM
  TGI: 14.1 µM
[14]
  GI50: 2.21 µM
  TGI: > 33 µM
[15]
  GI50: 4.29 µM
  TGI: > 33 µM
[16]
  GI50: 0.554 µM
  TGI: 3.25 µM
[17]
  GI50: 3.84 µM
  TGI: 30.1 µM
[18]
  GI50: 5.11 µM
  TGI: > 33 µM
[19]
  GI50: 4.48 µM
  TGI: 14.1 µM
[20]
  GI50: 1.2 µM
  TGI: > 33 µM
[21]
  GI50: 4.82 µM
  TGI: 24.3 µM
[22]
  GI50: 2.9 µM
  TGI: 7.5 µM
[23]
  GI50: 7.12 µM
  TGI: > 33 µM
[24]
  GI50: 1.54 µM
  TGI: > 33 µM
[25]
  GI50: 7.77 µM
  TGI: > 33 µM
[26]
  GI50: 2.12 µM
  TGI: 16.6 µM
[27]
  GI50: 3.64 µM
  TGI: > 33 µM
[28]
  GI50: 1.42 µM
  TGI: > 33 µM
[29]
  GI50: 8.33 µM
  TGI: > 33 µM
[30]
  GI50: 4.6 µM
  TGI: 19.6 µM
[31]
  GI50: 2.41 µM
  TGI: > 33 µM
[32]
  GI50: 4.19 µM
  TGI: 22.8 µM
[33]
  GI50: 4.12 µM
  TGI: 18.6 µM
[34]
  GI50: 2.22 µM
  TGI: 7.5 µM
[35]
  GI50: 13.4 µM
  TGI: > 33 µM
[36]
  GI50: 1.96 µM
  TGI: 12.5 µM
[37]
  GI50: 2.32 µM
  TGI: > 33 µM
[38]
  GI50: 2.86 µM
  TGI: > 33 µM
[39]
  GI50: 1.9 µM
  TGI: > 33 µM
[40]
  GI50: 5.78 µM
  TGI: 21.8 µM
[41]
  GI50: 2.73 µM
  TGI: 8.17 µM
[42]
  GI50: 5.87 µM
  TGI: > 33 µM
[43]
  GI50: 3.29 µM
  TGI: 20.1 µM
[44]
  GI50: 2.38 µM
  TGI: 18.7 µM
[45]
  GI50: 4.14 µM
  TGI: 8.46 µM
[46]
  GI50: 1.95 µM
  TGI: 17.3 µM
[47]
  GI50: 5.01 µM
  TGI: 24.6 µM
[48]
  GI50: 5.58 µM
  TGI: 18.1 µM
[49]
  GI50: 3 µM
  TGI: > 33 µM
[50]
  GI50: 1.74 µM
  TGI: > 33 µM
[51]
  GI50: 1.57 µM
  TGI: 7.16 µM
[52]
  GI50: 1.69 µM
  TGI: 24.3 µM
[53]
  GI50: 1.09 µM
  TGI: > 33 µM
[54]
  GI50: 3.64 µM
  TGI: 17.6 µM
[55]
  GI50: 6.7 µM
  TGI: > 33 µM
[56]
  GI50: 1.59 µM
  TGI: 6.2 µM
[57]
  GI50: 1.98 µM
  TGI: 14.8 µM
